Results: PubChem BioAssay AID2060356 (Molecular Pharmacology Branch, DTP, NCI, 2025)
pIC50: −log10 of the molar value. Several values for one entry are separate records, joined by “and”; a condition that tells them apart may be missing. Equal values may be shown once.

System: PDC tumor spheroids with HUVEC/MSC, viability
Assay: Anticancer human tumor 439559-082-T-J2-PDC patient-derived colon adenocarcinoma cell line growth inhibition [TAK]
Conditions: for viability, T/C: stronger effect = lower value
From the text: Combinatorial screen of targeted agents with TAK-243 and ipatasertib in multi-cell type tumor spheroids
A high-throughput screen of multi-cell type tumor spheroids was designed to identify active combinations of targeted small molecules and TAK-243 or ipatasertib. Complex spheroids include a stromal component modeled by human endothelial cells (HUVEC) and fibroblasts modeled by human mesenchymal stem cells (MSCs). The concentration ranges selected for each drug and investigational agent were based upon clinically achievable concentrations if the clinical Cmax of the agent was known.
Compounds. The drugs and investigational agents: TAK-243 (785004), ipatasertib (767898), everolimus (733504), selumetinib (741078), bortezomib (756655), trametinib (758246), ixazomib (758254), vemurafenib (761431), dabrafenib (764134), sapanisertib (764658), alpelisib (765974), and copanlisib (816437), were obtained from the National Cancer Institute (NCI) Developmental Therapeutics Program Chemical Repository. The FDA-approved anticancer drug set is available from the NCI Developmental Therapeutics Program. […] The stock solutions were prepared in dimethyl sulfoxide (DMSO, Sigma-Aldrich, St. Louis, MO, cat. D2650) at 800-fold the tested concentration and stored at -70 degrees C prior to their use. All drugs and investigational agents were tested over a range starting from a high concentration at or near the clinical Cmax and decreasing in half-log increments. If the clinical Cmax for an agent had not been determined, the highest concentration tested was 10 microM.
NCI60 Cell Culture. NCI60 cell lines were obtained from the NCI Developmental Therapeutics Program Tumor Repository. For each lot of cells, the Repository performed Applied Biosystems AmpFLSTR Identifiler testing with PCR amplification to confirm consistency with the published Identifier STR profile for each cell line. Cells were kept in continuous culture for no more than 20 passages. The optimal seeding densities for each of the cell lines at each time point assessed were determined prior to performing the concentration response studies. Briefly, the NCI60 human tumor lines were grown as monolayers in RPMI 1640 medium supplemented with 10% FBS and 2 mmol/L L-glutamine.
An additional 2 lines were from the NCI60 cell line panel including melanomas, MALME-3M and SK-MEL-2. Pooled donor human umbilical vein endothelial cells (HUVEC, Lonza, cat. CC-2519) and human mesenchymal stem cells (hMSC, Lonza, cat. PT-2501) were purchased from Lonza (Walkersville, MD).
PDMR cell lines were grown in complete medium (DC medium): Dulbecco's modified Eagle's medium (DMEM)/F12 supplemented with 5% fetal bovine serum (FBS), 2 mM L-glutamine, 100 U/mL penicillin and 100 µg/ml streptomycin, 0.4 µg/ml hydrocortisone, 10 ng/ml epidermal growth factor (EGF) recombinant human protein, 24 µg/mL adenine, and 0.1 mg/mL primocin. During culture from frozen stock vials, PDMR cells were cultured in the same medium containing 10 µM Y-27632 (see Table 3). The PDCs were cultured in complete DMEM/F12 media without 10 microM Y-27632 dihydrochloride for at least two passages prior to the screen. The pooled donor HUVEC and hMSC were cultured in endothelial cell growth medium 2 (PromoCell, Heidelberg, Germany, cat. C-22011) and mesenchymal stem cell growth medium 2 (PromoCell, cat. C-28009), respectively. For all experiments, HUVEC and hMSC were used at passages </=5.
For the pre-screen, cell seeding densities were determined from a titration spanning the range from 5,000 to 313 cells per well. The mct-spheroids including 60% malignant cells, 25% HUVEC and 15% MSC dispensed as a mixture into U-bottom Ultra-Low Attachment 384-well plates (Corning, NY)
High-throughput Drug Combination Screening.
Prior to their inoculation into 384-well plates, malignant cells, HUVEC, and hMSC were removed from T flasks using TrypLE express (Thermo Fisher Scientific, cat. 12605036) and harvested by centrifugation for 5 min at 233 x g. […]

[1] = curve of first compound, second compound 0.3 µM
[2] = curve of first compound, second compound 0.949 µM
[3] = curve of first compound, second compound 3 µM
[4] = curve of first compound, second compound 9.49 µM
[5] = curve of first compound, second compound 30 µM
[6] = second compound 0.3 µM, first compound 0.0316 µM
[7] = second compound 0.3 µM, first compound 0.1 µM
[8] = second compound 0.3 µM, first compound 0.316 µM
[9] = second compound 0.3 µM, first compound 1 µM
[10] = second compound 0.3 µM, first compound 3.16 µM
[11] = second compound 0.3 µM, first compound 10 µM
[12] = second compound 0.949 µM, first compound 0.0316 µM
[13] = second compound 0.949 µM, first compound 0.1 µM
[14] = second compound 0.949 µM, first compound 0.316 µM
[15] = second compound 0.949 µM, first compound 1 µM
[16] = second compound 0.949 µM, first compound 3.16 µM
[17] = second compound 0.949 µM, first compound 10 µM
[18] = second compound 3 µM, first compound 0.0316 µM
[19] = second compound 3 µM, first compound 0.1 µM
[20] = second compound 3 µM, first compound 0.316 µM
[21] = second compound 3 µM, first compound 1 µM
[22] = second compound 3 µM, first compound 3.16 µM
[23] = second compound 3 µM, first compound 10 µM
[24] = second compound 9.49 µM, first compound 0.0316 µM
[25] = second compound 9.49 µM, first compound 0.1 µM
[26] = second compound 9.49 µM, first compound 0.316 µM
[27] = second compound 9.49 µM, first compound 1 µM
[28] = second compound 9.49 µM, first compound 3.16 µM
[29] = second compound 9.49 µM, first compound 10 µM
[30] = second compound 30 µM, first compound 0.0316 µM
[31] = second compound 30 µM, first compound 0.1 µM
[32] = second compound 30 µM, first compound 0.316 µM
[33] = second compound 30 µM, first compound 1 µM
[34] = second compound 30 µM, first compound 3.16 µM
[35] = second compound 30 µM, first compound 10 µM
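Also: spheroids exposed to drugs for seven days before readout.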

**Q.** Which viability, T/C (compound 0.000316 µM) does the source give for `COC1CC2CCC(C)C(O)(O2)C(=O)C(=O)N2CCCCC2C(=O)OC(C(C)CC2CCC(OCCO)C(OC)C2)CC(=O)C(C)C=C(C)C(O)C(OC)C(=O)C(C)CC(C)C=CC=CC=C1C` (configuration not stated) here?
**A.** Its viability, T/C is 110% and 103%.

**Q.** What about the viability, T/C (compound 0.001 µM) of the same molecule?
**A.** The viability, T/C was 97.7% and 98.1%.

**Q.** What about the viability, T/C (compound 0.00316 µM) of the same molecule?
**A.** Its viability, T/C is 90.7% and 89.7%.

**Q.** What about the viability, T/C (compound 0.01 µM) of the same molecule?
**A.** Its viability, T/C is 82.7% and 90.2%.

**Q.** And the viability, T/C (compound 0.0316 µM)?
**A.** The viability, T/C was 90.9% and 86%.

**Q.** What about the viability, T/C (compound 0.1 µM) of the same molecule?
**A.** The viability, T/C was 91.7% and 92.3%.

**Q.** What about the pIC50 (curve of compound) of the same molecule?
**A.** Its pIC50 is under 7.00.

**Q.** Which results are given for `Cc1nc(NC(=O)N2CCCC2C(N)=O)sc1-c1ccnc(C(C)(C)C(F)(F)F)c1` (configuration not stated) + CC(C)NCC(C(=O)N1CCN(c2ncnc3c2C(C)CC3O)CC1)c1ccc(Cl)cc1?
**A.** pIC50 [1]: < 5.00; pIC50 [2]: < 5.00; pIC50 [3]: < 5.00; pIC50 [4]: < 5.00; pIC50 [5]: < 5.00; viability, T/C [6]: 106%; viability, T/C [7]: 98.8%; viability, T/C [8]: 85%; viability, T/C [9]: 86.8%; viability, T/C [10]: 80.9%; viability, T/C [11]: 69.6%; viability, T/C [12]: 109%; viability, T/C [13]: 102%; viability, T/C [14]: 86.3%; viability, T/C [15]: 85.8%; viability, T/C [16]: 80.1%; viability, T/C [17]: 70%; viability, T/C [18]: 98.8%; viability, T/C [19]: 102%; viability, T/C [20]: 85.5%; viability, T/C [21]: 85.6%; viability, T/C [22]: 78.5%; viability, T/C [23]: 82.3%; viability, T/C [24]: 95.8%; viability, T/C [25]: 91.4%; viability, T/C [26]: 85%; viability, T/C [27]: 83.1%; viability, T/C [28]: 75.7%; viability, T/C [29]: 74.2%; viability, T/C [30]: 86.4%; viability, T/C [31]: 91.7%; viability, T/C [32]: 84.9%; viability, T/C [33]: 79%; viability, T/C [34]: 81.3%; viability, T/C [35]: 71.5%

**Q.** `CC(C)(C)c1nc(-c2cccc(NS(=O)(=O)c3c(F)cccc3F)c2F)c(-c2ccnc(N)n2)s1` + CC(C)NCC(C(=O)N1CCN(c2ncnc3c2C(C)CC3O)CC1)c1ccc(Cl)cc1 was tested. Which pIC50 [1] did it give?
**A.** The pIC50 was under 5.00.

**Q.** And the pIC50 [2]?
**A.** Its pIC50 is under 5.00.

**Q.** What about the pIC50 [3] of the same molecule?
**A.** Its pIC50 is under 5.00.

**Q.** What about the pIC50 [4] of the same molecule?
**A.** The pIC50 was under 5.00.

**Q.** What about the pIC50 [5] of the same molecule?
**A.** Its pIC50 is under 5.00.

**Q.** And the viability, T/C [6]?
**A.** Its viability, T/C is 123%.

**Q.** And the viability, T/C [7]?
**A.** The viability, T/C was 108%.

**Q.** And the viability, T/C [8]?
**A.** Its viability, T/C is 106%.

**Q.** What about the viability, T/C [9] of the same molecule?
**A.** Its viability, T/C is 110%.

**Q.** And the viability, T/C [10]?
**A.** Its viability, T/C is 113%.

**Q.** And the viability, T/C [11]?
**A.** The viability, T/C was 96.3%.

**Q.** And the viability, T/C [12]?
**A.** The viability, T/C was 108%.

**Q.** What about the viability, T/C [13] of the same molecule?
**A.** The viability, T/C was 113%.

**Q.** And the viability, T/C [14]?
**A.** Its viability, T/C is 102%.

**Q.** What about the viability, T/C [15] of the same molecule?
**A.** The viability, T/C was 111%.

**Q.** What about the viability, T/C [16] of the same molecule?
**A.** Its viability, T/C is 106%.

**Q.** What about the viability, T/C [17] of the same molecule?
**A.** The viability, T/C was 96.2%.

**Q.** And the viability, T/C [18]?
**A.** The viability, T/C was 104%.

**Q.** And the viability, T/C [19]?
**A.** Its viability, T/C is 107%.

**Q.** And the viability, T/C [20]?
**A.** Its viability, T/C is 106%.

**Q.** And the viability, T/C [21]?
**A.** Its viability, T/C is 96.9%.

**Q.** And the viability, T/C [22]?
**A.** The viability, T/C was 103%.

**Q.** What about the viability, T/C [23] of the same molecule?
**A.** Its viability, T/C is 93.8%.

**Q.** What about the viability, T/C [24] of the same molecule?
**A.** The viability, T/C was 99.8%.

**Q.** And the viability, T/C [25]?
**A.** Its viability, T/C is 107%.

**Q.** What about the viability, T/C [26] of the same molecule?
**A.** Its viability, T/C is 102%.

**Q.** And the viability, T/C [27]?
**A.** The viability, T/C was 90.5%.

**Q.** What about the viability, T/C [28] of the same molecule?
**A.** The viability, T/C was 96%.

**Q.** What about the viability, T/C [29] of the same molecule?
**A.** The viability, T/C was 99.5%.

**Q.** What about the viability, T/C [30] of the same molecule?
**A.** The viability, T/C was 93.5%.

**Q.** What about the viability, T/C [31] of the same molecule?
**A.** Its viability, T/C is 101%.

**Q.** And the viability, T/C [32]?
**A.** The viability, T/C was 96.2%.

**Q.** And the viability, T/C [33]?
**A.** The viability, T/C was 99.4%.

**Q.** And the viability, T/C [34]?
**A.** Its viability, T/C is 86.8%.

**Q.** And the viability, T/C [35]?
**A.** Its viability, T/C is 94%.
